# Test results reported in patent US9127024B2 (Intrexon Corporation, priority 2013, dated 2015).
# Read-outs that look alike come from different tables or passages of the source.
# Key:
# [1] = target: RheoSwitch® (CHO-K1_RS-1 cells, firefly Luciferase reporter) (Choristoneura fumiferana, UniProt O77240); test: in vitro gene switch assay (fLUC Luciferase expression, potency screen); type: cell-based
# From the text: Gene switch assays are disclosed, e.g., in U.S. Pat. Nos. 8,076,517; 7,456,315; 7,304,161; and 6,258,603.
# CHO-K1 cells were stably transfected with a plasmid (RS-1, FIG. 1) coding for firefly Luciferase (fLUC) under the control of the RheoSwitch® resulting in the stable cell line CHO-K1_RS-1. A master cell bank was created containing approximately 100 vials at 5×10^6 cells per vial. One vial of CHO-K1_RS-1 was thawed and cultured for two weeks prior to each in vitro potency screening.
# Twenty-four (24) hours prior to treatment with the control and test compounds the CHO-K1_RS-1 cells were seeded into white-opaque 384-well cell culture plates at 3,600 cells per well in 30 μl of culture medium. The cells were incubated in a humidified CO2 incubator at 37° C. until compound treatment.
# Compounds were prepared at 25 mM in 100% dry DMSO and stored at room temperature in sealed 1 ml tubes prior to subsequent dilution and assay. On the day of cell treatment the tubes containing the control and test compounds were sorted and the ligands transferred to a 96-well polypropylene plate for subsequent dilution. The compounds were diluted in 100% dry DMSO in an 8-point, 10-fold dilution series ranging from 25 mM to 2.5 nM using the Biomek FX automated liquid handler.
# The diluted compounds were then transferred to each well of 384-well polypropylene plate in quadruplicate resulting in a single 384-well plate with four replicates of each compound dilution in a different quadrant of the plate. Each well on the 384-well plate received 20 μl of diluted compound. The 384-well plates containing diluted compound and the plates containing cells in culture were loaded onto the Biomek FX and 30 nl of compound was delivered to each well containing cells using a 384-pin V&P Scientific Pin Tool. The resulting 1000-fold dilution (30 nl to 30 μl) generated a final dosing range of 25 μM to 2.5 pM in 0.1% DMSO. Two replicate plates were produced to supply a dedicated plate for the Luciferase expression assay and the APH cell viability assay.
# The cells were incubated with the compound for 24 hours in a humidified CO2 incubator at 37° C. Following incubation, the cells were assayed for Luciferase expression (fLUC assay) using the Steady Glo assay from Promega. Cells were equilibrated to room temperature for 15 minutes prior to reagent addition. Thirty micro liters (30 μl) of assay reagent was added to each well of the 384-well plate using the Biomek FX. The reagent was incubated with the cells for 10-120 minutes prior to reading on a Molecular Devices Spectramax L luminometer. The assay reagents were prepared as per the manufacturer's instructions.
# The Luciferase expression data was normalized to the baseline signal from cells treated with DMSO alone. The ratio of signal from treated cells to vehicle-treated cells was plotted and non-linear regress was performed using Graph Pad Prism software. EC50, (log)EC50 and Hill slope data was generated. Reporter gene expression, e.g., luciferase expression, serves as a proxy for the expression of a gene of interest. See, e.g., US 2009/0123441 and WO 2011/119773.
# [2] = Pharmacokinetic (PK) study, oral gavage, plasma LC-MS/MS; settings: for Clearance: oral clearance
# Experimental: Female Sprague Dawley rats were fasted for at least 8 hours (overnight) prior to oral dosing of the compound via gavage (10 mg/kg; vehicle=2 mg/mL of Capryol 90/Triacetin (1:1, v/v); 3 animals/compound) and weighed prior to dosing. The correct volume of the appropriate formulation was administered based on that day's (animal) body weight. Body weight, dose volume, and dosing time was recorded for each animal. Animals were not fed for at least 4 hours following activator ligand administration.
# Approximately 200 μL/blood sample was collected from the catheter sample points in EDTA tubes at each time point from each animal. The exact time of blood collection was recorded for each animal Blood samples were held at 4° C. (wet ice) starting immediately after collection and were centrifuged within 15 minutes from the collection for 12 minutes at 2500 rpm. After centrifugation, plasma samples were stored at ^−80° C. until assay. Sample times were as follows: Day 0: 0, 0.5, 1, 2, 3, 4, 6 and 8 hours; Day 1: 24 hours.
# LC-MS/MS Method: Liquid chromatography tandem mass spectrometry with protein precipitation method was used to quantify the compound in rat plasma samples collected from all animals dosed with the ligand. Linearity range was from 1 ng/mL to 1000 ng/mL, with correlation coefficient for calibration curves above 0.99 and analyte quantified within ±15% of target at all calibrator concentrations.
# The plasma ligand concentration was calculated by extrapolating the area under the curve values for the samples from the standard curve generated by the Analyst® software program. The ng/mL values for the plasma samples representing all the animals were used to generate the pharmacokinetic (PK) parameters.
# [3] = read-out: fLUC assay EC50, 24 hours with compound, 25 μM to 2.5 pM, figure in parentheses after a value not defined
# [4] = female, Sprague Dawley, rat, po, 10 mg/kg
# [5] = female Sprague Dawley rats, oral gavage 10 mg/kg, Capryol 90/Triacetin (1:1, v/v)
# [6] = female, Sprague Dawley, rat, po, 10 mg/kg, AUC0−t, female Sprague Dawley rats, oral gavage 10 mg/kg, Capryol 90/Triacetin (1:1, v/v)
# [7] = female, Sprague Dawley, rat, po, 10 mg/kg, Cmax, female Sprague Dawley rats, oral gavage 10 mg/kg, Capryol 90/Triacetin (1:1, v/v)
# [8] = female, Sprague Dawley, rat, po, 10 mg/kg, Tmax, female Sprague Dawley rats, oral gavage 10 mg/kg, Capryol 90/Triacetin (1:1, v/v)
# [9] = female, Sprague Dawley, rat, po, 10 mg/kg, half-life, female Sprague Dawley rats, oral gavage 10 mg/kg, Capryol 90/Triacetin (1:1, v/v)
# [10] = female Sprague Dawley rats, oral gavage 10 mg/kg, Capryol 90/Triacetin (1:1, v/v), listed as Cpd. No. 13 (Lot # 1), 10 mg/kg
# [11] = female Sprague Dawley rats, oral gavage 10 mg/kg, Capryol 90/Triacetin (1:1, v/v), listed as Cpd. No. 13 (Lot # 2), 10 mg/kg
# [12] = read-out: fLUC assay EC50 Run 1, 24 hours with compound, Run 1
# [13] = read-out: fLUC assay EC50 Run 2, 24 hours with compound, Run 2
# RheoSwitch® (CHO-K1_RS-1 cells, firefly Luciferase reporter), sequence (O77240 1-513): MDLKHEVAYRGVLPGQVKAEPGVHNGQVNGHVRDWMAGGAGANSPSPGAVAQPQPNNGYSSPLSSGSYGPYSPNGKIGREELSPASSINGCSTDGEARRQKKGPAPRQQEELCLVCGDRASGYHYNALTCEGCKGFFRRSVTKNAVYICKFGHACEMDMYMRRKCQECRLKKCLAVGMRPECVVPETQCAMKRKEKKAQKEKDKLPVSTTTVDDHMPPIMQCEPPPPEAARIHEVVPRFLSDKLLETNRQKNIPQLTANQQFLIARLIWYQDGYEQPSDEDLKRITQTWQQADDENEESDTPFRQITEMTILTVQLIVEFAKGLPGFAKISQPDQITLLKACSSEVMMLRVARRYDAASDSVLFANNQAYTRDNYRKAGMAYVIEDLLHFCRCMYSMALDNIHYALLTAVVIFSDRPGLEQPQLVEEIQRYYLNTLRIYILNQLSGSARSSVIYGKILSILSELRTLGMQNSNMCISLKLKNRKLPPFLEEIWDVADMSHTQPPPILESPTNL
smiles,measurement,setting,value
Cc1cc(C)cc(C(=O)N(NC(=O)c2ccc3c(c2C)OCCOB3O)C(C)(C)C)c1,EC50,[1]; [3],259 nM
same,AUC(0-t),[2]; [4],13200 ng·h/mL
same,Cmax,[2]; [4],1280 ng/mL
same,Tmax,[2]; [4],2.3 h
same,half-life,[2]; [4],11 h
same,Clearance,[2]; [5],10.2 mL/min/kg
"CCC[C@@H](N(NC(=O)c1cccc(OC)c1C)C(=O)c1cc(C)cc(C)c1)C(C)(C)C [Cpd. A, reference compound]",AUC(0-t),[2]; [6],773 ng·h/mL
same,Cmax,[2]; [7],255 ng/mL
same,Tmax,[2]; [8],4 h
same,half-life,[2]; [9],2.1 h
same,Clearance,[2]; [5],213.1 mL/min/kg
"CCC[C@@H](N(NC(=O)c1cccc(OC)c1CC)C(=O)c1cc(C)cc(C)c1)C(C)(C)C [Cpd. B, reference compound]",AUC(0-t),[2]; [6],888 ng·h/mL
same,Cmax,[2]; [7],116 ng/mL
same,Tmax,[2]; [8],3.7 h
same,half-life,[2]; [9],5.4 h
same,Clearance,[2]; [5],183.83 mL/min/kg
Cc1cc(C)cc(C(=O)N(NC(=O)c2cccc(B(O)O)c2F)C(C)(C)C)c1 [Cpd. No. 5],EC50,[1]; [3],300 nM
same,AUC(0-t),[2]; [6],18800 ng·h/mL
same,Cmax,[2]; [7],1890 ng/mL
same,Tmax,[2]; [8],4 h
same,half-life,[2]; [9],4 h
same,Clearance,[2]; [5],8.88 mL/min/kg
"CCC[C@@H](N(NC(=O)c1ccc(B(O)O)cc1F)C(=O)c1cc(C)cc(C)c1)C(C)(C)C [Cpd. No. 13, (R)-(4-(2-(3,5-dimethylbenzoyl)-2-(2,2-dimethylhexan-3-yl)hydrazinecarbonyl)-3-fluorophenyl)boronic acid]",EC50,[1]; [3],64 nM
same,AUC0−t,[2]; [10],10579 ng·h/mL
same,Cmax,[2]; [10],1415 ng/mL
same,AUC0−t,[2]; [11],60407 ng·h/mL
same,Cmax,[2]; [11],7060 ng/mL
same,Tmax,[2]; [11],3.3 h
same,half-life,[2]; [11],4.3 h
same,Tmax,[2]; [8],2.7 h
same,half-life,[2]; [9],3.2 h
same,Clearance,[2]; [10],15.6 mL/min/kg
same,Clearance,[2]; [11],2.82 mL/min/kg
"CCC[C@@H](N(NC(=O)c1ccc(B(O)O)c(F)c1)C(=O)c1cc(C)cc(C)c1)C(C)(C)C [Cpd. No. 22, (R)-(4-(2-(3,5-dimethylbenzoyl)-2-(2,2-dimethylhexan-3-yl)hydrazinecarbonyl)-2-fluorophenyl)boronic acid]",EC50,[1]; [3],105 nM
same,AUC(0-t),[2]; [6],25000 ng·h/mL
same,Cmax,[2]; [7],2730 ng/mL
same,Tmax,[2]; [8],3 h
same,half-life,[2]; [9],5.6 h
same,Clearance,[2]; [5],6.78 mL/min/kg
"Cc1cc(C)cc(C(=O)N(NC(=O)c2ccc3c(c2C)OCCNB3O)C(C)(C)C)c1 [Cpd. No. 91, N′-(tert-butyl)-N′-(3,5-dimethylbenzoyl)-1-hydroxy-6-methyl-1,2,3,4-tetrahydrobenzo[f][1,4,5]oxazaborepine-7-carbohydrazide]",EC50,[1]; [12],132 nM
same,EC50,[1]; [13],86.9 nM
"CC[C@@H](N(NC(=O)c1ccc2c(c1C)OCCNB2O)C(=O)c1cc(C)cc(C)c1)C(C)(C)C [Cpd. No. 92, (R)-N′-(3,5-dimethylbenzoyl)-N′-(2,2-dimethylpentan-3-yl)-1-hydroxy-6-methyl-1,2,3,4-tetrahydrobenzo[f][1,4,5]oxazaborepine-7-carbohydrazide]",EC50,[1]; [12],187 nM
same,EC50,[1]; [13],116 nM
"CCC[C@@H](N(NC(=O)c1ccc([B-](F)(F)F)cc1F)C(=O)c1cc(C)cc(C)c1)C(C)(C)C [Cpd. No. 93, potassium (R)-(4-(2-(3,5-dimethylbenzoyl)-2-(2,2-dimethylhexan-3-yl)hydrazine-1-carbonyl)-3-fluorophenyl)trifluoroborate]",EC50,[1]; [12],66.8 nM
same,EC50,[1]; [13],122 nM
"COCc1ccc(C(=O)NN(C(=O)c2cc(C)cc(C)c2)C(C)(C)C)c(F)c1B1OC(C)(C)C(C)(C)O1 [Cpd. No. 94, N′-(tert-butyl)-N′-(3,5-dimethylbenzoyl)-2-fluoro-4-(methoxymethyl)-3-(4,4,5,5-tetramethyl-1,3,2-dioxaborolan-2-yl)benzohydrazide]",EC50,[1]; [12],778 nM
same,EC50,[1]; [13],1650 nM
CCC[C@@H](N(NC(=O)c1ccc(B(O)O)cc1C(C)C)C(=O)c1cc(C)cc(C)c1)C(C)(C)C [compound 10],EC50,[1]; [3],1240 nM
Cc1cc(C)cc(C(=O)N(NC(=O)c2ccc(B(O)O)cc2C(C)C)C(C)(C)C)c1 [compound 11],EC50,[1]; [3],14100 nM
Cc1cc(C)cc(C(=O)N(NC(=O)c2ccc(B(O)O)cc2F)C(C)(C)C)c1 [compound 12],EC50,[1]; [3],271 nM
[2H]C([2H])([2H])c1cc(C(=O)N(NC(=O)c2ccc(B(O)O)cc2F)[C@H](CC)C(C)(C)C)cc(C([2H])([2H])[2H])c1 [compound 15],EC50,[1]; [3],52.3 nM
CC[C@@H](N(NC(=O)c1ccc(B(O)O)cc1Cl)C(=O)c1cc(C)cc(C)c1)C(C)(C)C [compound 20],EC50,[1]; [3],183 nM
Cc1cc(C)cc(C(=O)N(NC(=O)c2ccc(B(O)O)cc2Cl)C(C)(C)C)c1 [compound 21],EC50,[1]; [3],1630 nM
CCC[C@@H](N(NC(=O)c1ccc(CCCB2OC(C)(C)C(C)(C)O2)c(OC(F)F)c1C)C(=O)c1cc(C)cc(C)c1)C(C)(C)C [compound 30],EC50,[1]; [3],50.8 nM
CC[C@@H](N(NC(=O)c1cccc(OC)c1C)C(=O)c1cc(C)cc(B2OC(C)(C)C(C)(C)O2)c1)C(C)(C)C [compound 39],EC50,[1]; [3],168 nM
CCc1c(OC)cccc1C(=O)NN(C(=O)c1ccc(B(O)O)cc1)C(C)(C)C [compound 40],EC50,[1]; [3],5250 nM
Cc1cc(C)cc(C(=O)N(NC(=O)c2cccc(B3OC(C)(C)C(C)(C)O3)c2C)C(C)(C)C)c1 [compound 43],EC50,[1]; [3],1420 nM
CC[C@@H](N(NC(=O)c1ccc2c(c1)B(O)OC2)C(=O)c1cc(C)cc(C)c1)C(C)(C)C [compound 52],EC50,[1]; [3],287 nM
CC[C@H](N(NC(=O)c1ccc2c(c1)B(O)OC2)C(=O)c1cc(C)cc(C)c1)C(C)(C)C [compound 53],EC50,[1]; [3],1000 nM
[2H]C([2H])([2H])c1cc(C(=O)N(NC(=O)c2ccc3c(c2F)B(O)OC3)[C@H](CC)C(C)(C)C)cc(C([2H])([2H])[2H])c1 [compound 60],EC50,[1]; [3],123 nM
Cc1cc(C)cc(C(=O)N(CC(C)(C)C)NC(=O)c2ccc3c(c2C)OCCOB3O)c1 [compound 71],EC50,[1]; [3],430 nM
Cc1cc(Cl)cc(C(=O)N(CC(C)(C)C)NC(=O)c2ccc3c(c2C)OCCOB3O)c1 [compound 72],EC50,[1]; [3],443 nM
CCC(C)(C)N(NC(=O)c1ccc2c(c1C)OCCOB2O)C(=O)c1cc(C)cc(C)c1 [compound 76],EC50,[1]; [3],358 nM
[2H]C([2H])([2H])c1cc(C(=O)N(NC(=O)c2ccc3c(c2C)OCCOB3O)C(C)(C)CC)cc(C([2H])([2H])[2H])c1 [compound 77],EC50,[1]; [3],181 nM
CC[C@H](N(NC(=O)c1ccc2c(c1C)OCCOB2O)C(=O)c1cc(C)cc(C)c1)C(C)(C)C [compound 80],EC50,[1]; [3],867 nM
[2H]C([2H])([2H])c1cc(C(=O)N(NC(=O)c2ccc3c(c2C)OCCOB3O)[C@@H](CC)C(C)(C)C)cc(C([2H])([2H])[2H])c1 [compound 81],EC50,[1]; [3],564 nM
"CCOCc1ccc(C(=O)NN(C(=O)c2cc(C)cc(C)c2)[C@H](CC)C(C)(C)C)c(F)c1B(O)O [compound 90, (R)-(3-(2-(3,5-dimethylbenzoyl)-2-(2,2-dimethylpentan-3-yl)hydrazine-1-carbonyl)-6-(ethoxymethyl)-2-fluorophenyl)boronic acid]",EC50,[1]; [12],389 nM
same,EC50,[1]; [13],~266 nM
